Experimental data reported in ChEMBL document CHEMBL1148899, “Activity of macrocyclic jatrophane diterpenes from Euphorbia kansui in a TrkA fibroblast survival assay” (2004).
In brackets after ≈: the same amount, converted by molar mass.

Assays:
NIH3T3 [1] = assay: Survival effect on NGF-dependent mouse NIH/3T3 cells expressing TrkA assessed as cell viability after 2 days by MTT assay; format: functional; conditions: NIH3T3, 48 h, read-out: ED50 (the source's name)
NIH3T3 [2] = assay: Survival effect on NGF-dependent mouse NIH/3T3 cells expressing TrkB assessed as cell viability after 2 days by MTT assay; format: functional; conditions: NIH3T3, 48 h, read-out: ED50 (the source's name)

Question: With C=C1[C@H](OC(C)=O)[C@@H](OC(=O)c2ccccc2)[C@@H](OC(C)=O)C(C)(C)[C@H]2O[C@](O)([C@H](C)C2=O)[C@@]2(OC(C)=O)C[C@H](C)[C@H](OC(C)=O)[C@@H]2[C@H]1OC(C)=O [KANSUININ A] as the molecule, how does the EC50 (NIH3T3 [1]) read?
Answer: 7.92 µg/mL (≈ 10.8 µM)

Question: And the EC50 (NIH3T3 [2])?
Answer: 3.28 µg/mL (≈ 4.49 µM)

Question: How did the EC50 (NIH3T3 [1]) turn out when C=C1[C@H](OC(C)=O)[C@@H](OC(=O)c2ccccc2)[C@@H](OC(=O)c2cccnc2)C(C)(C)[C@H]2O[C@](O)([C@H](C)C2=O)[C@@]2(OC(C)=O)C[C@H](C)[C@H](OC(C)=O)[C@@H]2[C@H]1OC(C)=O [KANSUININ D] was run?
Answer: 0.55 µg/mL (≈ 0.693 µM)

Question: What about the EC50 (NIH3T3 [2]) of the same molecule?
Answer: 0.22 µg/mL (≈ 0.277 µM)

Question: With C=C1[C@H](OC(C)=O)[C@@H](OC(=O)c2ccccc2)[C@@H](OC(=O)c2cccnc2)C(C)(C)[C@H]2O[C@@H]2[C@@H](C)C(=O)[C@@]2(OC(C)=O)C[C@H](C)[C@H](OC(C)=O)[C@@H]2[C@H]1OC(C)=O [KANSUININ E] as the molecule, how does the EC50 (NIH3T3 [1]) read?
Answer: 0.23 µg/mL (≈ 0.296 µM)

Question: And the EC50 (NIH3T3 [2])?
Answer: > 50 µg/mL

Question: How did the EC50 (NIH3T3 [1]) turn out when C=C1[C@H](OC(C)=O)[C@@H](OC(=O)c2ccccc2)[C@@H](OC(=O)c2ccccc2)C(C)(C)[C@H]2O[C@@H]2[C@@H](C)C(=O)[C@@]2(OC(C)=O)C[C@H](C)[C@H](OC(C)=O)[C@@H]2[C@H]1OC(C)=O [KANSUININ F] was run?
Answer: > 50 µg/mL

Question: What about the EC50 (NIH3T3 [2]) of the same molecule?
Answer: > 50 µg/mL
